Test results from patent publication US9096601B2 (CSPC Zhongqi Pharmaceutical Technology (Shijiazhuang) Co., …, priority 2010, dated 2015).
Where two headings read alike, the source gives them in different places.

What was measured:
[1] = system: chronic granulocytic leukemia cell strain K562; assay: In-vitro tumor cell proliferation inhibition, MTT; assay type: cell-based, human
Excerpt: (§1) The object of this assay was to test the inventive compounds for the inhibitory activity of in-vitro tumor cell proliferation. The MTT (tetreamethyl-azo-zole-salt) colorimetric method was used in this assay.
(§2) Human non-small cell lung carcinoma cell strains HCC827, PC-9, H1975 (EGFR L858R/T790M mutation) and H292 (EGFR WT), and other tumor type cell strains, including human acute myelogenous leukemia cell strain MV4-11, human chronic granulocytic leukemia cell strain K562, human squamous cell carcinoma cell strain A431, human breast carcinoma cell strains MDA-MB-468 and BT 474, human colon cancer cell strains SW480, HCT116 and SW620, human liver cancer cell strain Hep G2, human gastric cancer cell strain MK-45, and human malignant melanoma cell strain A375 used in this assay were all purchased from ATCC company, USA and kept in the laboratory. All of the above-mentioned non-small cell lung carcinoma cell strains and the breast carcinoma cell strain BT 474 were cultured with a RPMI-1640 complete culture medium containing 10% fetal bovine serum, 100 U/ml penicillin and 100 μg/ml streptomycin under 5% CO2 and at 37° C. The other cell strains were cultured with a DMEM complete culture medium containing 10% fetal bovine serum (having a MV4-11 cell content of 20%), 100 U/ml penicillin and 100 μg/ml streptomycin under 5% CO2 and 37° C.
(§3) A cell suspension having a cell concentration of 1-2×10^4 cells/ml was treated with a complete cell culture solution to adjust the cell concentration, wherein the cell concentrations for HCC827 and MV4-11 were adjusted to 6×10^4 cells/ml and 1×10^5 cells/ml respectively. The cell suspension was inoculated in a 96-well plate with 200 μl cell suspension/well and cultured overnight. Next day, the supernatant was drawn off and discarded. Then, the cells were treated with the tested compounds in a gradient concentration respectively. In the meanwhile, a negative control group free of the drug substance and an isovolumetric solvent control group (having a DMSO concentration of 1%) were used. The triplicate wells were used for each of dose groups. The culturing was conducted at 37° C. under 5% CO2. After 72 hours, […] having a concentration of 5 mg/ml was added to each of wells. The culturing was further conducted for 2-4 hours. The supernatant was discarded. Then […] was added to each of wells. The contents in the well were mixed homogenously by oscillation for 15 minutes. The absorbance (A) value was measured with a microplate reader at λ=570 nm (the A value is in the direct proportion to the number of living cells) and averaged. The relative cell proliferation inhibitory rate is (A570 control-group−A570 dose-group)/A570 control-group×100%. The assay was repeated for at least three times. The data was expressed as number average. The statistical data were analyzed using t-test. P<0.05 was considered significant. The cell proliferation inhibition of the following compounds was expressed as IC50 or inhibitory rate.

[2] = system: acute myelogenous leukemia cell strain MV4-11; assay: In-vitro tumor cell proliferation inhibition, MTT; assay type: cell-based, human
Excerpt: as §1, §2, §3

[3] = system: colon cancer cell strain SW620; assay: In-vitro tumor cell proliferation inhibition, MTT; assay type: cell-based, human
Excerpt: as §1, §2, §3

[4] = system: breast carcinoma cell strain BT474; assay: In-vitro tumor cell proliferation inhibition, MTT; assay type: cell-based, human
Excerpt: as §1, §2, §3

[5] = system: breast carcinoma cell strain MDA-MB-468; assay: In-vitro tumor cell proliferation inhibition, MTT; assay type: cell-based, human
Excerpt: as §1, §2, §3

[6] = system: colon cancer cell strain HCT116; assay: In-vitro tumor cell proliferation inhibition, MTT; assay type: cell-based, human
Excerpt: as §1, §2, §3

[7] = system: colon cancer cell strain SW480; assay: In-vitro tumor cell proliferation inhibition, MTT; assay type: cell-based, human
Excerpt: as §1, §2, §3

[8] = system: malignant melanoma cell strain A375; assay: In-vitro tumor cell proliferation inhibition, MTT; assay type: cell-based, human
Excerpt: as §1, §2, §3

[9] = system: gastric cancer cell strain MK-45; assay: In-vitro tumor cell proliferation inhibition, MTT; assay type: cell-based, human; settings: 72 hours, read-out: MK45 (IC50)
Excerpt: as §1, §2, §3

[10] = system: liver cancer cell strain Hep G2; assay: In-vitro tumor cell proliferation inhibition, MTT; assay type: cell-based, human
Excerpt: as §1, §2, §3

[11] = system: squamous cell carcinoma cell strain A431; assay: In-vitro tumor cell proliferation inhibition, MTT; assay type: cell-based, human
Excerpt: as §1, §2, §3

MET = MET (Homo sapiens (Human), UniProt P08581); assay: Kinase inhibitory activity, isotopic labeling (γ-33P-ATP); assay type: biochemical; settings: compound at 10 μM; read-out: The kinase activity inhibitory rate (%) by the tested compounds at 10 μM MET
Experimental: (§4) The object of this assay was to test the inventive compounds for the kinase inhibitory activity in vitro. In this assay, an isotopic labeling method was used to label the γ phosphate group on ATP. EGFR (including wild type, L858R mutant type and L858R/T790M double mutant type), VEGFR2, ALK, BTK, c-KIT, c-SRC, MET, PDGFRα and FLT3 kinases were tested in vitro for the activity inhibition. Staurosporine was used as a reference molecule (or referred to as a positive control). […] The IC50 value can be obtained by the calculation of the inhibitory rates at a series of different concentrations of the tested compounds.
(§5) To a reaction tube were successively added the buffer solution (8 mM MOPS, pH 7.0, 0.2 mM EDTA, 10 mM MnCl2), the kinase to be tested (5-10 mU) (EGFR/ALK/BTK/c-KIT/c-SRC/MET/PDGFRα/VEGFR2), the substrate for the kinase to be tested (a reference material), 10 mM of the solution of magnesium acetate and γ-^33 P-ATP, and different concentrations of the tested compounds. […] The reaction was terminated with […] of the 3% phosphate buffer solution. 10 μL of the reaction liquid was titrated on the Filtermat A membrane. The membrane was washed with 75 mM of the phosphate solution thrice (5 minutes each time), and then with methanol once, and finally dried. The membrane was subjected to a scintillation counting. The value of the scintillation counting reflected the phosphorylation level of the substrate and therefore could characterize the inhibition of the kinase activity.

FLT3 = FLT3 (Homo sapiens (Human), UniProt P36888); assay: as above; assay type: biochemical; settings: compound at 10 μM; read-out: The kinase activity inhibitory rate (%) by the tested compounds at 10 μM FLT3
Experimental: as §4, §5

BTK = BTK (Homo sapiens (Human), UniProt Q06187); assay: as above; assay type: biochemical; settings: compound at 10 μM; read-out: The kinase activity inhibitory rate (%) by the tested compounds at 10 μM BTK
Experimental: as §4, §5

ALK = ALK (Homo sapiens (Human), UniProt Q9UM73); assay: as above; assay type: biochemical; settings: compound at 10 μM; read-out: The kinase activity inhibitory rate (%) by the tested compounds at 10 μM ALK
Experimental: as §4, §5

c-KIT = c-KIT (Homo sapiens (Human), UniProt P10721); assay: as above; assay type: biochemical; settings: compound at 10 μM; read-out: The kinase activity inhibitory rate (%) by the tested compounds at 10 μM c-KIT
Experimental: as §4, §5

VEGFR2 = VEGFR2 (Homo sapiens (Human), UniProt P35968); assay: as above; assay type: biochemical
Experimental: as §4, §5

PDGFRα = PDGFRα (Homo sapiens (Human), UniProt P16234); assay: as above; assay type: biochemical; settings: compound at 10 μM; read-out: The kinase activity inhibitory rate (%) by the tested compounds at 10 μM PDGFRα
Experimental: as §4, §5

c-SRC = c-SRC (Homo sapiens (Human), UniProt P12931); assay: as above; assay type: biochemical; settings: compound at 10 μM; read-out: The kinase activity inhibitory rate (%) by the tested compounds at 10 μM c-SRC
Experimental: as §4, §5

[12] = system: non-small cell lung carcinoma cell strain H1975 (EGFR L858R/T790M mutation); assay: In-vitro tumor cell proliferation inhibition, MTT; assay type: cell-based, human; settings: 72 hours
Experimental: as §1
(§6) All of the above-mentioned non-small cell lung carcinoma cell strains and the breast carcinoma cell strain BT 474 were cultured with a RPMI-1640 complete culture medium containing 10% fetal bovine serum, 100 U/ml penicillin and 100 μg/ml streptomycin under 5% CO2 and at 37° C. The other cell strains were cultured with a DMEM complete culture medium containing 10% fetal bovine serum (having a MV4-11 cell content of 20%), 100 U/ml penicillin and 100 μg/ml streptomycin under 5% CO2 and 37° C.
as §3

[13] = system: non-small cell lung carcinoma cell strain H292 (EGFR WT); assay: In-vitro tumor cell proliferation inhibition, MTT; assay type: cell-based, human; settings: 72 hours
Experimental: as §1, §6, §3

[14] = system: non-small cell lung carcinoma cell strain PC-9 (EGFR delE746-A750 deletion mutation); assay: In-vitro tumor cell proliferation inhibition, MTT; assay type: cell-based, human; settings: 72 hours
Experimental: as §1, §6, §3

[15] = system: non-small cell lung carcinoma cell strain HCC827; assay: In-vitro tumor cell proliferation inhibition, MTT; assay type: cell-based, human; settings: 72 hours
Experimental: as §1, §6, §3

[16] = 72 hours, read-out: HEPG2 (IC50)

Sequence of c-SRC (P12931 whole entry, looked up): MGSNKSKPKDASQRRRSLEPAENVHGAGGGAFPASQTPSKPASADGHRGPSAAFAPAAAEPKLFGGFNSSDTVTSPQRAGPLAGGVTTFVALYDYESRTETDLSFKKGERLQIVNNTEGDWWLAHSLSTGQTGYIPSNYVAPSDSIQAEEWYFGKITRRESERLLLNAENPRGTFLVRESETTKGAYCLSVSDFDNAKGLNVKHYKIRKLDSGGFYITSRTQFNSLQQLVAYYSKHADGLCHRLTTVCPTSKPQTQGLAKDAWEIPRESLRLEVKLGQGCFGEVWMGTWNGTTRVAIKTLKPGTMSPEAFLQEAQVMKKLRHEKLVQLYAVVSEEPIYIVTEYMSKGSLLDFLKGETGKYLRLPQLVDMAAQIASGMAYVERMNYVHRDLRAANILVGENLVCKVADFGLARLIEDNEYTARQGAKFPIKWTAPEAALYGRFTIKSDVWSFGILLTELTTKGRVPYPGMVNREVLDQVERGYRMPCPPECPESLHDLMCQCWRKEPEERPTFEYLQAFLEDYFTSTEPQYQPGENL
Sequence of c-KIT (P10721 26-976): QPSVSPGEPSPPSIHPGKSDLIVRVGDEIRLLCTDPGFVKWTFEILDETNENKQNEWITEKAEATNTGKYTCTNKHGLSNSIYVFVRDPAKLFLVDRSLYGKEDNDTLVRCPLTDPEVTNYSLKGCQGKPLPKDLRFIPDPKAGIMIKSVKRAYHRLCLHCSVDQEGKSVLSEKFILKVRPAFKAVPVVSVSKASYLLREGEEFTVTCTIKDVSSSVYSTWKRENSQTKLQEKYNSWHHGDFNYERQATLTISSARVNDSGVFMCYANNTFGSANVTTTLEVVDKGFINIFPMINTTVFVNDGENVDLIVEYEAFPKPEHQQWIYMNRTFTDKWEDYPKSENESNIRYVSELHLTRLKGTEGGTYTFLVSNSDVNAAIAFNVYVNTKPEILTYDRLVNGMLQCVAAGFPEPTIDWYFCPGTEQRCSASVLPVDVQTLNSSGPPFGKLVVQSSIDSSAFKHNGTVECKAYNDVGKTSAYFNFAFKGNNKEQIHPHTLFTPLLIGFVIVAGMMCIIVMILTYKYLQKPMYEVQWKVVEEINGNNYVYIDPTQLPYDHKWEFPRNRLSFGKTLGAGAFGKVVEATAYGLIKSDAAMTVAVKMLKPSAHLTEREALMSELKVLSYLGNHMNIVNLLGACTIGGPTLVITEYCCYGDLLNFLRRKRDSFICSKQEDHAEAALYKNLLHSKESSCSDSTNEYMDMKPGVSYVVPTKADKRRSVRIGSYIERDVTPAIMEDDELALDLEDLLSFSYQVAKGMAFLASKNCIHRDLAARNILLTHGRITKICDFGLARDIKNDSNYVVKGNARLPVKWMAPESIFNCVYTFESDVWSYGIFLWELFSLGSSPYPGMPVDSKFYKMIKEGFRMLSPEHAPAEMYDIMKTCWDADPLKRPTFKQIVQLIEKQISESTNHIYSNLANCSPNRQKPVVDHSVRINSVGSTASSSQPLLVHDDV
Sequence of MET (P08581 25-1390): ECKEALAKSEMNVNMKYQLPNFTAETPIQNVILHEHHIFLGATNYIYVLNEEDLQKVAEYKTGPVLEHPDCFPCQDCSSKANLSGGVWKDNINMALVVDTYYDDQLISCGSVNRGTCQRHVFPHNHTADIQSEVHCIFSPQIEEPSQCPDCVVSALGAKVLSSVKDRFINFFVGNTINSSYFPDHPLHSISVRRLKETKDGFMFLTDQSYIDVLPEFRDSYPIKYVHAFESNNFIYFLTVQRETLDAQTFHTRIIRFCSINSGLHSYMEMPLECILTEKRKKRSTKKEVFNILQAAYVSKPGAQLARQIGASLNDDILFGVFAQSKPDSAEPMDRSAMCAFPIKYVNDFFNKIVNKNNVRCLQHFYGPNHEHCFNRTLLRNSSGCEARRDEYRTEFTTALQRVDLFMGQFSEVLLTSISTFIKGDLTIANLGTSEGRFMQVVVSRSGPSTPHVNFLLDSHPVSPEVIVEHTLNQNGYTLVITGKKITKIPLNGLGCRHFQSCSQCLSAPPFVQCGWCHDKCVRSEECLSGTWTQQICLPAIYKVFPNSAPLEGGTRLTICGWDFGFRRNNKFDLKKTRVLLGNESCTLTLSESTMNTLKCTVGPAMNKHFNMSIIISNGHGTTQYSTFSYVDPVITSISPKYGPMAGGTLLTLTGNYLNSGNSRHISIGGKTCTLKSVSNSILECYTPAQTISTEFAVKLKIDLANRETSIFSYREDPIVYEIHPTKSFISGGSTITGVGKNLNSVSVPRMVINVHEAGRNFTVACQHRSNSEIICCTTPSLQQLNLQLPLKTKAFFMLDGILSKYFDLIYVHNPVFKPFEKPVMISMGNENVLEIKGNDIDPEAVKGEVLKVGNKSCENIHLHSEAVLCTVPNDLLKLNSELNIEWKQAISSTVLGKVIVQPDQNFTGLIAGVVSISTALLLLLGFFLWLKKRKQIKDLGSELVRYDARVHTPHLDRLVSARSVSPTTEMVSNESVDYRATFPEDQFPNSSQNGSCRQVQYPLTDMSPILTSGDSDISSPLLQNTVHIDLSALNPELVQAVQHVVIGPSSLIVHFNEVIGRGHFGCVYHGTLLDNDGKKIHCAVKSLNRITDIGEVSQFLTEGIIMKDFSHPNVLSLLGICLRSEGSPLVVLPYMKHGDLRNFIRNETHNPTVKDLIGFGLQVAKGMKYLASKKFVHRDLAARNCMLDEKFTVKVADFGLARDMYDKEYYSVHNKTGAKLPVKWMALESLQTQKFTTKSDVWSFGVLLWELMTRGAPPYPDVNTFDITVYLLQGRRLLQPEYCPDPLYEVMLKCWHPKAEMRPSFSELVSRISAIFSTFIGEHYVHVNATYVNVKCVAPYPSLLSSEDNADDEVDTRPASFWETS
Sequence of PDGFRα (P16234 24-1089): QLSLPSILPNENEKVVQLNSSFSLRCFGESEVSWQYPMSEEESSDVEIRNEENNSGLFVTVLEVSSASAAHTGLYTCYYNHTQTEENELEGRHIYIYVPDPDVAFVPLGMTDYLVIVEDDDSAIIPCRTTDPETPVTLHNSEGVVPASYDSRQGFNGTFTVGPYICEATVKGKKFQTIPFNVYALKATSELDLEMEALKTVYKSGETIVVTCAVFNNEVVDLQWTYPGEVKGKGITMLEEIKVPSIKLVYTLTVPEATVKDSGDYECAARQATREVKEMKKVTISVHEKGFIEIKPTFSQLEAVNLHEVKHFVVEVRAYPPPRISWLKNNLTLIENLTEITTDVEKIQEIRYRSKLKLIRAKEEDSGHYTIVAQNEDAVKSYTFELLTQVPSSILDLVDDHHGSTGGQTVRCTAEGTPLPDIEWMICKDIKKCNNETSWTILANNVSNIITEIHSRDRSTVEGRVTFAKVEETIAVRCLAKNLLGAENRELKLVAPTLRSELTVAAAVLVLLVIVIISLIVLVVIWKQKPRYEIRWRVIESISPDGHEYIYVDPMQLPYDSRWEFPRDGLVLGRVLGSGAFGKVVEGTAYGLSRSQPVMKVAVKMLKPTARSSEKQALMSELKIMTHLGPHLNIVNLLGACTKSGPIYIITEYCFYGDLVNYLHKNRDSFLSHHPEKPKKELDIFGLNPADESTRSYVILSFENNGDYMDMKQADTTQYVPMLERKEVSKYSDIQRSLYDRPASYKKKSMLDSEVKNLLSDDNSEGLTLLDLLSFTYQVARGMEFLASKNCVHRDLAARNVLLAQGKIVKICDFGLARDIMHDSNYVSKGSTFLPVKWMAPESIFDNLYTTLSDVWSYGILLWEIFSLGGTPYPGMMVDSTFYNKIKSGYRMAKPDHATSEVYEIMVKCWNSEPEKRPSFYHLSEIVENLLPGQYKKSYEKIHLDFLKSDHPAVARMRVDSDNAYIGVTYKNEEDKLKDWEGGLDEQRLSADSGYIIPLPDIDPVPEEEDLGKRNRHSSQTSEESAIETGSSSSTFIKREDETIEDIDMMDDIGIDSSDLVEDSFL
Sequence of FLT3 (P36888 27-993): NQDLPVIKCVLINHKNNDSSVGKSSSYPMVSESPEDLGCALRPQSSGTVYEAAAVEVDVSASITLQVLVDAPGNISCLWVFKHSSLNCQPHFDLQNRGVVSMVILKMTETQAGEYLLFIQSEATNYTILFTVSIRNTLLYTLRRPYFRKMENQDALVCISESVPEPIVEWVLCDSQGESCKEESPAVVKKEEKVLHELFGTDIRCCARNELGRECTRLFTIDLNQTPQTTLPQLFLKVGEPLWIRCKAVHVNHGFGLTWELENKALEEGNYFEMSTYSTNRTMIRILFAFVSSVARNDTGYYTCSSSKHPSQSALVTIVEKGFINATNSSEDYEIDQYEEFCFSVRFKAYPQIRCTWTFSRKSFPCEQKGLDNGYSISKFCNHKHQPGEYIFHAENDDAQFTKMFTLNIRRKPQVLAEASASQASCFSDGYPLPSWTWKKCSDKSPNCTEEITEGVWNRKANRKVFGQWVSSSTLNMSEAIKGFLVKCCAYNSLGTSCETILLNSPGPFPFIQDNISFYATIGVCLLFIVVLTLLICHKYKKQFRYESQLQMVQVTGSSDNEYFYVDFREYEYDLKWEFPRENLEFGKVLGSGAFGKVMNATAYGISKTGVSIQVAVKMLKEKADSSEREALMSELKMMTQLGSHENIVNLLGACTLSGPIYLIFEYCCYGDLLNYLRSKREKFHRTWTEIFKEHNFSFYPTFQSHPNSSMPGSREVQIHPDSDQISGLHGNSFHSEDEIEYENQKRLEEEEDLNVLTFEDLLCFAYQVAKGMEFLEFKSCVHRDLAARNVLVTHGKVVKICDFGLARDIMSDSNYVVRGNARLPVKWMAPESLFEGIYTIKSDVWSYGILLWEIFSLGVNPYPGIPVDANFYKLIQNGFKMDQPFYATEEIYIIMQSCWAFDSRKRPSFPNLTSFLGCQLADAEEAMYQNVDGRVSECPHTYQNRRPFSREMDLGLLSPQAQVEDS

Compound | IC50 ([1]; 72 hours) | IC50 ([2]; 72 hours) | IC50 ([3]; 72 hours) | IC50 ([4]; 72 hours) | IC50 ([5]; 72 hours) | IC50 ([6]; 72 hours) | IC50 ([7]; 72 hours) | IC50 ([8]; 72 hours) | IC50 [9] | IC50 [10, 16] | IC50 ([11]; 72 hours) | IC50 [12] | IC50 [13] | IC50 [14] | IC50 [15] | other results
CC(C)n1c(Nc2ccc(F)c(Cl)c2)nc2cnc(Nc3ccc(C(=O)NN4CCN(C)CC4)cc3F)nc21 [Compound 8-5, 3-fluoro-4-(9-isopropyl-8-(3-chloro-4-fluorophenylamino)-9H-purin-2-ylamino)-N-(4-methylpiperazin-1-yl)benzamide] | – | – | – | – | – | – | – | – | – | – | – | – | – | – | – | IC50 ([1]; Homo sapiens, K562, 72 hours): 3730 nM; IC50 ([2]; Homo sapiens, MV4-11, 72 hours): 1770 nM; IC50 ([3]; Homo sapiens, SW-620, 72 hours): 5570 nM; IC50 ([4]; Homo sapiens, BT-474, 72 hours): 1860 nM; IC50 ([5]; Homo sapiens, MDA-MB-468, 72 hours): 6130 nM; IC50 ([6]; Homo sapiens, HCT-116, 72 hours): 7810 nM; IC50 ([7]; Homo sapiens, SW480, 72 hours): > 10000 nM; IC50 ([8]; Homo sapiens, A-375, 72 hours): > 1000 nM; IC50 ([9]; Homo sapiens): > 1000 nM; IC50 ([10]; Homo sapiens, HepG2, 72 hours): > 10000 nM; IC50 ([11]; Homo sapiens, A-431, 72 hours): 9290 nM; inhibition at 10 µM (MET): 64%; inhibition at 10 µM (FLT3): 35%; inhibition at 10 µM (BTK): 78%; inhibition at 10 µM (ALK): 54%; inhibition at 10 µM (c-KIT): 54%; IC50 (VEGFR2): > 1000 nM; inhibition at 10 µM (PDGFRα): 19%; inhibition at 10 µM (c-SRC): 32%
CN1CCN(c2ccc(Nc3ncc4nc(Nc5cccc(Cl)c5)n(C5CCCC5)c4n3)cc2)CC1 [Compounds 8-52] | 148 nM | 642 nM | 1570 nM | 165 nM | 737 nM | 5930 nM | 4620 nM | 974 nM | 457 nM | 7230 nM | 79.6 nM | 271 nM | 4 nM | 0.6 nM | 0.3 nM | –
Cc1cccc(Nc2nc3cnc(Nc4ccc(N5CCN(C)CC5)cc4)nc3n2C2CCCC2)c1 [Compounds 8-53] | 95.3 nM | 899 nM | 2110 nM | 1510 nM | 622 nM | > 10000 nM | 4210 nM | 8070 nM | 559 nM | > 10000 nM | 249 nM | 552 nM | 4.1 nM | 0.2 nM | 0.2 nM | –
CN1CCN(c2ccc(Nc3ncc4nc(Nc5cc(Cl)cc(Cl)c5)n(C5CCCC5)c4n3)cc2)CC1 [Compounds 8-54] | 863 nM | 1070 nM | 6640 nM | 3960 nM | 3350 nM | 6960 nM | 6730 nM | 5580 nM | 688 nM | 5980 nM | 2060 nM | 1700 nM | 279 nM | 204 nM | 6.3 nM | –
